We go through ten compounds from ChEMBL document CHEMBL1201862, “PubChem BioAssay data set” (2004).

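Dose response: 5 concentrations. Exposure: 48 h. Format: 96-well plates. Endpoint: linear interpolation; highest concentration if not reached. At the GI50, growth is halved.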 Active and inactive are the calls of the source. No stated cut-off is given here; in the data, active = GI50 up to about 1.1 µM and inactive = higher. Residues, ends and D or L forms follow the SMILES beside them. Some results are limits rather than exact numbers.

Some test systems named below: SK-MEL-5; SK-MEL-28; HCT-116; M14; UO-31; OVCAR-8; SNB-19; ACHN; 786-0; PC-3; UACC-62; HCC 2998; OVCAR-4; OVCAR-3; MDA-MB-435; MDA-N; NCI-H226; NCI-H460; HOP-62; U-251.
What all share (assay): inhibition of tumour cell growth, NCI panel, 48 h

For `CC(=O)NC(CO)C(=O)NC(Cc1ccc(O)cc1)C(=O)NCC(N)=O` (stereo not drawn) (Ac-Ser-Tyr-Gly-NH2; configuration not given here), the GI50 in the assay on SK-MEL-5, with SK-MEL-28, with HCT-116, in the assay with M14, in the assay with UO-31 and in the assay on OVCAR-8 was > 100 µM (inactive) in each case. Also, the GI50 in the assay on SNB-19, in the assay on ACHN, with 786-0, with PC-3, with UACC-62 and with HCC 2998 was > 100 µM (inactive) throughout. Moreover, the GI50 with OVCAR-4, in the assay with OVCAR-3, in the assay on MDA-MB-435, in the assay on MDA-N, with NCI-H226 and with NCI-H460 was > 100 µM (inactive) each time. Moreover, the GI50 in the assay on HOP-62 and in the assay on U-251 was > 100 µM (inactive) each time.
As to `COc1ccc(C2c3cc4c(cc3OC(N3CCOCC3)C2C)OCO4)c(OC)c1` (stereo not given), the GI50 is 2.81 µM (inactive) in the assay on SK-MEL-5; 8.49 µM (inactive) in the assay with SK-MEL-28; 3.77 µM (inactive) in the assay on HCT-116; 3.96 µM (inactive) with M14; 9.06 µM (inactive) in the assay on UO-31; 8 µM (inactive) in the assay on OVCAR-8. Also, the GI50 is 4.36 µM (inactive) with SNB-19; 9.48 µM (inactive) in the assay on ACHN; 4.63 µM (inactive) in the assay on 786-0; 7.6 µM (inactive) in the assay on PC-3; 5.56 µM (inactive) in the assay with UACC-62; 4.17 µM (inactive) in the assay on HCC 2998. Further, the GI50 is 10 µM (inactive) in the assay on OVCAR-4; 3.48 µM (inactive) in the assay with OVCAR-3; 2.14 µM (inactive) in the assay with MDA-MB-435; 1.64 µM (inactive) in the assay with MDA-N; 3.72 µM (inactive) in the assay on NCI-H226; 5.12 µM (inactive) in the assay on NCI-H460. The GI50 in the assay on HOP-62 was 5.06 µM (inactive); with U-251, 4.09 µM (inactive).
Regarding `CCCCCCCCCCCCCC(=O)CBr`, the GI50 with SK-MEL-5 was 12.1 µM (inactive); in the assay with SK-MEL-28, 16.5 µM (inactive); in the assay on HCT-116, 12.3 µM (inactive); in the assay on M14, 10.8 µM (inactive); in the assay with UO-31, 8.93 µM (inactive); with OVCAR-8, 14 µM (inactive). Also, the GI50 with SNB-19 was 16.9 µM (inactive); in the assay with ACHN, 15 µM (inactive); with 786-0, 5.13 µM (inactive); in the assay with PC-3, 3.62 µM (inactive); with UACC-62, 9.79 µM (inactive); in the assay with HCC 2998 it was 15.8 µM (inactive). Further, the GI50 is 14.2 µM (inactive) in the assay on OVCAR-4; 18.3 µM (inactive) with OVCAR-3; 16.7 µM (inactive) with MDA-MB-435; 12.3 µM (inactive) in the assay on MDA-N; 17.4 µM (inactive) with NCI-H226; 18 µM (inactive) in the assay with NCI-H460. Besides, the GI50 in the assay on HOP-62 is 21.5 µM (inactive); in the assay with U-251, 14.6 µM (inactive).
As to `COc1cc(/C=C2\C(=O)N(c3ccc(NC(C)=O)cc3)C(c3ccccc3)S2(=O)=O)cc(OC)c1OC` (stereo not given), the GI50 in the assay with SK-MEL-5 was 68.1 µM (inactive); in the assay with SK-MEL-28 it was > 100 µM (inactive); with HCT-116 it was > 100 µM (inactive); in the assay with M14, > 100 µM (inactive); in the assay on UO-31, 66.5 µM (inactive); in the assay on OVCAR-8 it was > 100 µM (inactive). The GI50 in the assay with SNB-19 was > 100 µM (inactive); with ACHN, > 100 µM (inactive); in the assay on 786-0, > 100 µM (inactive); in the assay with PC-3, 48.4 µM (inactive); with UACC-62, > 100 µM (inactive); with HCC 2998, > 100 µM (inactive). Also, the GI50 with OVCAR-4 was 60.8 µM (inactive); in the assay with OVCAR-3, 93.3 µM (inactive); with MDA-MB-435, 92.9 µM (inactive); in the assay on MDA-N it was 79.6 µM (inactive); in the assay on NCI-H226 it was > 100 µM (inactive); in the assay with NCI-H460, > 100 µM (inactive). In addition, the GI50 in the assay with HOP-62 and with U-251 was > 100 µM (inactive) in each case.
Regarding `Cc1nc2c(nc1C)-c1c(c3c(n1C)C(=O)CCC3)C(=O)C2=O`, the GI50 with SK-MEL-5 was 0.406 µM (active); in the assay with SK-MEL-28 it was 0.622 µM (active); with HCT-116, 0.249 µM (active); with M14, 0.338 µM (active); with UO-31, 0.456 µM (active); in the assay on OVCAR-8, 0.236 µM (active). For the same compound, the GI50 is 0.873 µM (active) in the assay with SNB-19; 0.476 µM (active) in the assay with ACHN; 1.39 µM (inactive) with 786-0; 1.17 µM (inactive) in the assay on PC-3; 0.406 µM (active) in the assay on UACC-62; 1.61 µM (inactive) in the assay on HCC 2998. In addition, the GI50 was 0.145 µM (active) in the assay on OVCAR-4; 0.156 µM (active) with OVCAR-3; 0.174 µM (active) in the assay on MDA-MB-435; 0.162 µM (active) in the assay on MDA-N; 1.41 µM (inactive) in the assay on NCI-H226; 1.23 µM (inactive) in the assay on NCI-H460. Besides, the values for the GI50 in the assay with HOP-62 and with U-251 were 0.885 µM (active) and 0.213 µM (active), respectively.
Regarding `CCn1c(=O)c2c3ccc(O)cc3oc2c2ccc(O)cc21`, the GI50 in the assay with SK-MEL-5 is 22.5 µM (inactive); with SK-MEL-28 it was 49.1 µM (inactive); in the assay with HCT-116, 27.2 µM (inactive); in the assay on M14, 43.2 µM (inactive); in the assay on UO-31, 26.7 µM (inactive); in the assay with OVCAR-8 it was 50.6 µM (inactive). The GI50 with SNB-19 was 43.8 µM (inactive); in the assay on ACHN, 24.8 µM (inactive); with 786-0, 63.4 µM (inactive); in the assay with PC-3, 42.6 µM (inactive); with UACC-62, 31.1 µM (inactive); in the assay on HCC 2998 it was 47 µM (inactive). The GI50 in the assay on OVCAR-4 is 62.4 µM (inactive); with OVCAR-3, 42.7 µM (inactive); with MDA-MB-435 it was 33.7 µM (inactive); in the assay with MDA-N it was 37.5 µM (inactive); in the assay with NCI-H226, 42.7 µM (inactive); in the assay with NCI-H460 it was 34.6 µM (inactive). Further, the GI50 was 34.4 µM (inactive) in the assay with HOP-62 and 32.2 µM (inactive) in the assay on U-251.
As to `O=C(O)Cc1cccnc1`, the GI50 with SK-MEL-5, in the assay on SK-MEL-28, with HCT-116, in the assay with M14, in the assay on UO-31 and with OVCAR-8 was > 100 µM (inactive) in each case. Also, the GI50 in the assay on SNB-19, with ACHN, in the assay with 786-0, in the assay with PC-3, with UACC-62 and in the assay on HCC 2998 was > 100 µM (inactive) throughout. The GI50 in the assay on OVCAR-4, in the assay on OVCAR-3, in the assay with MDA-MB-435, in the assay on MDA-N, in the assay on NCI-H226 and in the assay with NCI-H460 was > 100 µM (inactive) throughout. Moreover, the GI50 with HOP-62 and in the assay with U-251 was > 100 µM (inactive) in each case.
In the case of `C=C(Cl)C(Cl)(CBr)CCCC(C)(C)Cl` (stereo not given), the GI50 in the assay on SK-MEL-5 was 29.9 µM (inactive); in the assay on SK-MEL-28, 11.7 µM (inactive); in the assay with HCT-116 it was 14.1 µM (inactive); with M14, > 75.2 µM (inactive); with UO-31 it was 14.5 µM (inactive); with OVCAR-8 it was 18.7 µM (inactive). Also, the GI50 in the assay with SNB-19 was 14.7 µM (inactive); in the assay with ACHN it was 6.68 µM (inactive); in the assay on 786-0, 5.04 µM (inactive); in the assay with PC-3 it was 3.25 µM (inactive); with UACC-62 it was 17.4 µM (inactive); in the assay on HCC 2998 it was 15.9 µM (inactive). Besides, the GI50 in the assay with OVCAR-4 was 2.55 µM (inactive); with OVCAR-3, 2.47 µM (inactive); in the assay with MDA-MB-435, 27.2 µM (inactive); in the assay with MDA-N it was 28.1 µM (inactive); in the assay with NCI-H226, > 72.9 µM (inactive); with NCI-H460, 5.71 µM (inactive). In addition, the GI50 in the assay on HOP-62 is 4.26 µM (inactive); with U-251, 2.11 µM (inactive).
Take `Nc1ncnc2c1ncn2[C@@H]1C[C@H](NO)[C@@H](O)[C@H]1O`: the GI50 with SK-MEL-5 was > 100 µM (inactive); in the assay on SK-MEL-28, > 100 µM (inactive); with HCT-116 it was 4.88 µM (inactive); with M14 it was > 100 µM (inactive); with UO-31, 7.33 µM (inactive); with OVCAR-8 it was > 100 µM (inactive). The GI50 in the assay on SNB-19, with ACHN, with 786-0, with PC-3, in the assay on UACC-62 and with HCC 2998 was > 100 µM (inactive) each time. The GI50 in the assay on OVCAR-4, in the assay on OVCAR-3, with MDA-MB-435, in the assay on MDA-N, with NCI-H226 and in the assay with NCI-H460 was > 100 µM (inactive) each time. Besides, the GI50 in the assay with HOP-62 and in the assay with U-251 was > 100 µM (inactive) each time.
Consider `CCOC(=O)c1sc(N/N=C2\NC(=O)/C(=C/c3ccc([N+](=O)[O-])cc3)S2)nc1C`, for which the GI50 is 16.8 µM (inactive) with SK-MEL-5; 32.1 µM (inactive) in the assay with SK-MEL-28; 16.8 µM (inactive) in the assay with HCT-116; 28.8 µM (inactive) with M14; 16.2 µM (inactive) in the assay on UO-31; 22.4 µM (inactive) in the assay with OVCAR-8. Also, the GI50 in the assay on SNB-19 is 32.6 µM (inactive); in the assay on ACHN it was 21.8 µM (inactive); with 786-0, 16.7 µM (inactive); in the assay with PC-3, 25.6 µM (inactive); in the assay on UACC-62, 22.2 µM (inactive); with HCC 2998 it was 27.4 µM (inactive). For the same compound, the GI50 with OVCAR-4 is 26.1 µM (inactive); in the assay on OVCAR-3 it was 14.5 µM (inactive); in the assay on MDA-MB-435, 23.8 µM (inactive); in the assay with MDA-N, 25.9 µM (inactive); in the assay with NCI-H226, 18.7 µM (inactive); in the assay on NCI-H460 it was 21.5 µM (inactive). Moreover, the GI50 in the assay with HOP-62 was 17.2 µM (inactive); in the assay on U-251, 26.1 µM (inactive).
